Several values for one entry are separate records, joined by “and”; a condition that tells them apart may be missing. Identical values can stand only once.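 Assay format: 96-well plates, 48-hour exposure. GI50: concentration for 50% inhibition of growth. TGI is the concentration that stops growth completely.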

Among the test systems are T-47D breast; UACC-62 melanoma; SNB-19 CNS; BT-549 breast; PC-3 prostate; KM12 colon; HOP-92 NSCLC; 786-0 renal; M14 melanoma; SK-MEL-2 melanoma.
Common to all, as to assay: NCI tumour cell line growth inhibition, 48 h

As to `CN1CCN(Cc2ccc(NC(=O)c3cncc(C#Cc4c(N)ncc5cc(F)ccc45)c3)cc2C(F)(F)F)CC1`, the GI50 is 6.57 µM in the assay on T-47D breast; 1.88 µM in the assay with UACC-62 melanoma; 0.87 µM in the assay with SNB-19 CNS; 4.86 µM in the assay with BT-549 breast; 0.747 µM in the assay with PC-3 prostate; 0.0172 µM in the assay with KM12 colon. Further, the GI50 in the assay with HOP-92 NSCLC was 0.2 µM; with 786-0 renal it was 0.892 µM; in the assay with M14 melanoma, 0.378 µM; with SK-MEL-2 melanoma, 1.44 µM. For the same compound, the TGI with T-47D breast was found to be 20.2 µM; in the assay on UACC-62 melanoma, 5.18 µM; in the assay on SNB-19 CNS it was 1.57 µM; in the assay on BT-549 breast, 12.6 µM; in the assay with PC-3 prostate, 1.53 µM; in the assay with KM12 colon it was 0.738 µM. Moreover, the TGI in the assay on HOP-92 NSCLC came to 2.03 µM; in the assay on 786-0 renal, 1.63 µM; with M14 melanoma it was 1.11 µM; with SK-MEL-2 melanoma it was 6.14 µM.

For `O=C(/C=C\Sc1nccc(C(F)(F)F)n1)c1ccc(Br)cc1`, the GI50 in the assay on T-47D breast is 11.2 µM; in the assay with UACC-62 melanoma, 23.6 µM; in the assay with SNB-19 CNS, 36.9 µM; in the assay on BT-549 breast, 44.6 µM; in the assay on PC-3 prostate, 15.4 µM; with KM12 colon, 38.1 µM. Also, the GI50 is 16.3 µM with 786-0 renal, 17.9 µM with M14 melanoma and over 100 µM in the assay on SK-MEL-2 melanoma. Further, the TGI in the assay with T-47D breast is 38.5 µM; in the assay with UACC-62 melanoma, 60.7 µM; in the assay on SNB-19 CNS it was over 100 µM; in the assay with BT-549 breast it was over 100 µM; in the assay with PC-3 prostate, 29.4 µM; in the assay with KM12 colon, over 100 µM. Further, the TGI was 34.2 µM in the assay with 786-0 renal, 35.5 µM in the assay on M14 melanoma and over 100 µM with SK-MEL-2 melanoma.

Consider `COc1cc(-c2nc3ccccc3s2)ccc1OCc1nc2n(n1)S(=O)(=O)c1ccccc1N2C`, for which the GI50 in the assay on T-47D breast, in the assay with UACC-62 melanoma, with SNB-19 CNS, in the assay with BT-549 breast, in the assay on PC-3 prostate and in the assay on KM12 colon was over 100 µM in each case. For the same compound, the GI50 was 43.9 µM with HOP-92 NSCLC, over 100 µM in the assay on 786-0 renal, over 100 µM with M14 melanoma and over 100 µM with SK-MEL-2 melanoma. The TGI in the assay on T-47D breast, with UACC-62 melanoma, in the assay with SNB-19 CNS, in the assay on BT-549 breast, with PC-3 prostate and in the assay with KM12 colon was over 100 µM in each case. Besides, the TGI in the assay with HOP-92 NSCLC, with 786-0 renal, with M14 melanoma and in the assay with SK-MEL-2 melanoma was over 100 µM in each case.

For `Nc1ccn([C@@H]2C=C(CO)[C@@H](O)[C@H]2O)c(=O)n1`, the GI50 is 0.581 µM in the assay with T-47D breast; 0.16 µM and 0.0625 µM with KM12 colon; 0.257 µM in the assay on 786-0 renal; 0.329 µM with M14 melanoma. The TGI with T-47D breast was 261 µM; with UACC-62 melanoma it was 135 µM and 224 µM; in the assay with SNB-19 CNS, 500 µM and > 625 µM; with BT-549 breast it was 113 µM; with PC-3 prostate, 500 µM; with KM12 colon it was 500 µM and > 625 µM. Further, the TGI with 786-0 renal is 500 µM; in the assay on SK-MEL-2 melanoma, 346 µM and 301 µM.

For the compound `Cc1ccc2sc3c(NCCCNCCO)nc4ccccc4c3c(=O)c2c1`, the GI50 in the assay on T-47D breast was 1.59 µM; with UACC-62 melanoma, 1.69 µM; with BT-549 breast it was 1.54 µM; in the assay with PC-3 prostate it was 1.38 µM; with KM12 colon, 1.73 µM; with HOP-92 NSCLC, 1.28 µM. Besides, the GI50 in the assay on 786-0 renal was 1.7 µM; with M14 melanoma it was 1.61 µM; in the assay on SK-MEL-2 melanoma, 1.73 µM. The TGI was determined as 3.43 µM in the assay with T-47D breast; 3.14 µM in the assay with UACC-62 melanoma; 3.02 µM in the assay with BT-549 breast; 2.87 µM in the assay on PC-3 prostate; 3.21 µM in the assay with KM12 colon; 3.78 µM in the assay with HOP-92 NSCLC. In addition, the TGI with 786-0 renal was 3.23 µM; with M14 melanoma it was 3.06 µM; in the assay on SK-MEL-2 melanoma, 3.36 µM.

For `CCN(CC)CCOc1cc2c(C(=O)OC)c(C)oc2cc1C(C)=O`, the GI50 was 2.25 µM in the assay with T-47D breast; 9.4 µM with UACC-62 melanoma; 15.8 µM with SNB-19 CNS; 7.84 µM with BT-549 breast; 3.97 µM in the assay on PC-3 prostate; 4.45 µM in the assay on KM12 colon. Also, the GI50 in the assay on 786-0 renal is 13.1 µM; with M14 melanoma, 4.53 µM; in the assay with SK-MEL-2 melanoma, 33.3 µM. For the same compound, the TGI in the assay on T-47D breast was found to be 7.75 µM; in the assay on UACC-62 melanoma it was 21.5 µM; with SNB-19 CNS, 32.2 µM; in the assay with BT-549 breast, 22.8 µM; with PC-3 prostate it was 13.7 µM; in the assay with KM12 colon, 21.1 µM. The results for the TGI in the assay with 786-0 renal, in the assay on M14 melanoma and with SK-MEL-2 melanoma were 25.9 µM, 16.9 µM and over 100 µM, respectively.

For `C/C(=C\c1ccn(-c2ccc(N)cc2)n1)[C@@H]1C[C@@H]2O[C@]2(C)CCC[C@H](C)[C@H](O)[C@@H](C)C(=O)C(C)(C)[C@@H](O)CC(=O)O1`, the GI50 in the assay on T-47D breast was 0.028 µM; in the assay on UACC-62 melanoma, 0.157 µM; in the assay with SNB-19 CNS, 0.29 µM; in the assay on BT-549 breast, 0.138 µM; in the assay on PC-3 prostate, 0.0313 µM; in the assay on KM12 colon it was 0.0196 µM. Further, the GI50 in the assay with 786-0 renal is 0.174 µM; with SK-MEL-2 melanoma, 0.0758 µM. The TGI in the assay with T-47D breast, in the assay with UACC-62 melanoma, with SNB-19 CNS, in the assay with BT-549 breast, with PC-3 prostate and with KM12 colon was over 50 µM in each case. In addition, the TGI in the assay on HOP-92 NSCLC, with 786-0 renal and with SK-MEL-2 melanoma was over 50 µM in each case.

On to `O=C1C=CC2(C=C1)CCN=c1c(O)c3c(c(O)c12)=NC=N3`, for which the TGI is 25.2 µM and > 100 µM in the assay on T-47D breast; 27.1 µM with SNB-19 CNS; 32.4 µM and > 100 µM in the assay on BT-549 breast; 35 µM and > 100 µM with PC-3 prostate; 29.1 µM and > 100 µM in the assay on KM12 colon; 28.9 µM and > 100 µM with HOP-92 NSCLC. The TGI in the assay on 786-0 renal is 32.1 µM and > 100 µM; with M14 melanoma, 23.7 µM and > 100 µM; in the assay on SK-MEL-2 melanoma it was 16 µM and > 100 µM. Also, the GI50 in the assay with BT-549 breast was 18.1 µM and > 100 µM; in the assay on PC-3 prostate it was 10.1 µM and > 100 µM; in the assay with KM12 colon it was 14.4 µM and > 100 µM; with HOP-92 NSCLC it was 14.8 µM and > 100 µM; in the assay with 786-0 renal, 17.6 µM and > 100 µM; with M14 melanoma it was 11.3 µM and > 100 µM.

(Values after PubChem BioAssay (NCI).)
